Test results reported in PubChem BioAssay (NCI).
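A five-concentration, 48-hour dose response in 96-well plates underlies each endpoint, interpolated linearly between surrounding concentrations. Abbreviation: GI50, concentration required for 50% inhibition of growth. The concentration for full growth arrest is given as TGI.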

Key:
Assay in all cases: DTP human tumour cell line panel, 48 h
MDA-MB-435 = test system: MDA-MB-435
SK-MEL-28 melanoma = test system: SK-MEL-28 melanoma
HS 578T breast = test system: HS 578T breast
HOP-62 NSCLC = test system: HOP-62 NSCLC
SK-MEL-2 melanoma = test system: SK-MEL-2 melanoma
OVCAR-4 ovarian = test system: OVCAR-4 ovarian
NCI-H226 lung = test system: NCI-H226 lung

Compound | GI50 (MDA-MB-435) [µM] | TGI (MDA-MB-435) [µM] | GI50 (SK-MEL-28 melanoma) [µM] | TGI (SK-MEL-28 melanoma) [µM] | GI50 (HS 578T breast) [µM] | TGI (HS 578T breast) [µM] | GI50 (HOP-62 NSCLC) [µM] | TGI (HOP-62 NSCLC) [µM] | GI50 (SK-MEL-2 melanoma) [µM] | TGI (SK-MEL-2 melanoma) [µM] | GI50 (OVCAR-4 ovarian) [µM] | TGI (OVCAR-4 ovarian) [µM] | GI50 (NCI-H226 lung) [µM] | TGI (NCI-H226 lung) [µM]
COC(=O)c1c(O)ccc2[nH]c(C)c(C#N)c12 | 32.9 | > 100 | 65.9 | > 100 | 31 | 92.2 | 22.7 | 81 | > 100 | > 100 | > 100 | > 100 | 28.5 | 70.6
C=CC(=O)N1CCN(c2ncnc3c(F)c(-c4c(O)cccc4F)c(Cl)cc23)CC1 | 10.3 | 23.9 | 13.3 | 26 | 19 | 66.4 | 0.211 | 20.7 | 15 | 35 | 14.9 | 43.4 | 17 | 46.2
O=C(Nc1cc(-c2ccccc2)[nH]n1)c1ccc(Cl)cc1 |  |  | > 100 | > 100 | 3.96 | 65.9 | 20.7 | > 100 | 6.97 | > 100 | > 100 | > 100 | 56.7 | > 100
NCCN1CCN(c2nccc(-c3ccc4ccccc4c3)n2)CC1 | 1.8 | 3.25 | 1.85 | 3.42 | 1.73 | 4.37 | 1.76 | 3.28 | 2.21 | 4.36 | 2.41 | 7.5 | 2.03 | 5.66
CNC(=O)c1cn(C[C@H](F)CCc2ccc(NC(=O)Cc3cc(OC4CC(F)(F)C4)cc(C)n3)nn2)nn1 | > 100 | > 100 | > 100 | > 100 | 5.37 | > 100 | > 100 | > 100 | > 100 | > 100 | > 100 | > 100 |  | > 100
COc1cc(/C=C2\CC3C4CC=C5CC(N6CCCC6)CC[C@]5(C)C4CC[C@]3(C)C2OC(C)=O)ccc1OCCN1CCCC1 (some centres not stated) | 19.6 | 35.5 | 2.51 | 5.42 | 2.38 | 4.54 | 19.7 | 34.6 | 2.09 | 3.7 | 2.41 | 5.74 | 3.19 | 10.1
CCCCCC(=O)Oc1ccc(/C(=C(\C)c2ccc(OC)cc2)c2ccc(OCCN3CCCCC3)cc2)cc1 | 7.93 | 20.7 | 3.6 | 12.8 | 4.76 | 25.1 | 5.73 | 19.8 | 10.5 | 23.8 | 4.95 | 18.5 | 17.3 | 38.4
Cc1c(-c2nc(N)nc(C3CC3)c2C)nc(N)nc1C1CC1 |  | > 100 |  | > 100 |  | > 100 |  | > 100 |  | > 100 |  | > 100 |  | > 100
